Measurements reported in patent publication US20240307220A1, “Combination Therapy to Treat Temperature Sensitive Mutant Tumors” (H. LEE MOFFITT CANCER CENTER AND RESEARCH INSTITUTE INC., priority 2021, published 2024).

Assays:
[1] = test system: GA10-p53KO tumors; test: GA10-p53KO subcutaneous tumor xenografts in nude mice treated with CPT and hypothermia; format: in vivo; details: 32 hr×5 format
Description: (§1) FIGS. 7A to 7E show hypothermia cooperates with chemotherapy to induce regression of tumors expressing ts p53. […] CPT (1.5 mg/kg) was given at the beginning of each hypothermia cycle. Average size of tumors was plotted over time (mean±SD). FIG. 7B contains pictures of a GA10 partial response tumor before and after treatment. FIG. 7C is a waterfall plot showing combined results of 3 experiments. Tumors with durable remission are marked as “cured”. FIG. 7D contains individual growth curves of representative GA10 tumors from FIG. 7A that achieved durable remission after treatment. FIG. 7E contains individual growth curves of GA10 tumors from FIG. 7A that relapsed and received re-treatment.
Animal experiment. Animal experiments were reviewed and approved by the University of South Florida IACUC. Athymic female nude mice (6-week old, Athymic Nude-Foxn1nu, Envigo) were injected subcutaneously with 0.1 ml 1:1 slurry of Matrigel (VWR 47743-715) and 1×10^7 cells in PBS at each site. The inoculated mice were housed in a cabinet set to 28° C. (ARIA BIO-C36 ventilated cabinet, TECNIPLAST) to ensure that tumors develop at ˜37° C. […] The mice were kept in the 28° C. cabinet and monitored using infrared thermal imaging camera (FLIR ONE Pro, FLIR® Systems, Inc.) to verify that body temperature was maintained at ˜32° C. […]

[2] = test system: GA10 tumors; test: GA10 subcutaneous tumor xenografts in nude mice treated with CPT with or without hypothermia; format: in vivo
Description: as §1
FIGS. 14A to 14D show effect of low-dose CPT treatment alone on tumor growth. […] Tumor growth at 37° C. (without hypothermia treatment) was determined at indicated time points. […] Tumor growth at 37° C. (without hypothermia treatment) was determined at indicated time points. […] When tumors reached approximately 100 mm^3 the mice were injected i.p. with 1.5 mg/kg CPT every 3 days. Tumor growth was monitored over time (mean±SD). […] Average size of tumors was plotted over time.
Animal experiment. Animal experiments were reviewed and approved by the University of South Florida IACUC. Athymic female nude mice (6-week old, Athymic Nude-Foxn1nu, Envigo) were injected subcutaneously with 0.1 ml 1:1 slurry of Matrigel (VWR 47743-715) and 1×10^7 cells in PBS at each site. The inoculated mice were housed in a cabinet set to 28° C. (ARIA BIO-C36 ventilated cabinet, TECNIPLAST) to ensure that tumors develop at ˜37° C. Each mouse received injections at 2 sites, tumors formed at >80% of sites injected with GA10 cells. N^6-cyclohexyladenosine (CHA, Sigma C9901) was dissolved at 20 mg/ml in 25% (2-Hydroxypropyl)-β-cyclodextrin (w/v, Sigma H107) and heated at 65° C. for 10 min to ensure dissolution. Camptothecin (CPT, Santa Cruz Biotechnology sc-200871B) was freshly dissolved in 1 N NaOH, diluted to ˜0.5 mg/ml with saline, and adjusted to pH10 using HCl. To induce hypothermia, 0.2 ml saline+10% glucose containing CHA and CPT was administered by intra peritoneal injection to provide a CHA dosage of 10 mg/kg body weight and CPT (when indicated) dosage of 1.5 mg/kg body weight. The mice were kept in the 28° C. cabinet and monitored using infrared thermal imaging camera (FLIR ONE Pro, FLIR® Systems, Inc.) to verify that body temperature was maintained at ˜32° C. A second injection of CHA (10 mg/kg) in 0.4 ml saline+10% glucose was given after 10 hours to maintain hypothermia for ˜24 hours. A third injection of CHA (10 mg/kg) in 0.4 ml saline+10% glucose was given after 10 hours to maintain hypothermia for ˜32 hours. […]

[3] = test system: UC3 bladder cancer cells; test: UC3 colony formation after 2 hrs drug treatment, washout and 32° C. or 37° C. incubation; format: cell-based; details: 2 hrs drug at 37° C., washout, 32° C. vs 37° C. 24 hrs, then 7 days at 37° C.
Description: FIGS. 17A and 17B show hypothermia treatment given after chemotherapy enhances drug response in bladder cancer. […] The washed cells were incubated at 32° C. or 37° C. for 24 hrs, followed by 7 days at 37° C. and crystal violet staining for colony formation.
Standard bladder intravesical chemotherapy involves 1-2 hr irrigation with drugs at 37° C. or 42° C. The effect of treating cells with 32° C. hypothermia after chemotherapy was tested to avoid interference with drug uptake. TS mutant p53 activation peaks 6-8 hrs after shift to 32° C., which should cooperate with chemotherapy-induced DNA damage to induce cell death. […] Saline irrigation of up to 24 hrs is routinely performed after transurethral resection of bladder tumor (TURBT) procedure to prevent clotting. Therefore, irrigation with cooled saline after intravesical chemotherapy is expected to be well-tolerated and safe.

CC[C@@]1(O)C(=O)OCc2c1cc1n(c2=O)Cc2cc3ccccc3nc2-1 [CPT, Camptothecin]
GA10-p53KO complete response or durable remission ([1]; CPT 1.5 mg/kg and 32° C. hypothermia): did not achieve complete response or durable remission | GA10-p53KO tumor size change ([1]; p53-independent effects of CPT and hypothermia): modest shrinkage | GA10 tumor growth, CPT alone ([2]; 1.5 mg/kg CPT i.p., 37° C., no hypothermia): modestly inhibited GA10 tumor growth at 37 °C but did not cause shrinkage | response to CPT, GA10 versus GA10-p53KO tumors ([2]; 1.5 mg/kg CPT, 37° C. body temperature (p53 inactive)): no difference in response to CPT | GA10 tumor response to hypothermia+CPT combination ([2]; CPT 1.5 mg/kg, 32° C. hypothermia, 32 hr×5 format): significant regression | GA10 tumors that did not relapse ([2]; hypothermia+CPT, 32 hr×5 format, 50-day observation period after stopping treatment (12/37)): 32% | effect of 32° C. for 24 hrs after drug on growth inhibition (colony formation) [3]: significantly increased the growth inhibition potency
